From US20120214760A1, “TREATMENT OF URINARY TRACT INFECTIONS WITH ANTIBACTERIAL AMINOGLYCOSIDE COMPOUNDS” (Achaogen, Inc., priority 2009, published 2012) come the findings set out here.

Experiment [1] relates to E. coli ATCC 25922 (AECO001). Kind of experiment: MIC, CLSI broth microdilution. Particulars: for MIC: Escherichia coli. Format: cell-based. Put shortly:
(§1)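 MICs were read after 20 hours at 35° C in ambient air, with a final inoculum of 5×10^5 CFU/mL from saline-suspended overnight colonies. Serial two-fold dilutions in Mueller Hinton Broth followed the CLSI reference method (M7-A7), with QC strains E. coli ATCC 25922, P. aeruginosa ATCC 27853 and S. aureus ATCC 29213.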
In general terms: Broth dilution looks for growth in wells or tubes with falling amounts of substance.

Experiment [2] deals with P. aeruginosa ATCC 27853 (APAE001). Kind of experiment: MIC, CLSI broth microdilution. Format: cell-based. Particulars: Pseudomonas aeruginosa, ATCC27853; Table 2; read-out: MIC P. aeruginosa. Put shortly: as §1
In experiment [3] the test system is E. coli, Klebsiella spp., Enterobacter spp. and Citrobacter spp. Kind of experiment: MIC, urinary tract infection isolates. Format: cell-based. Particulars: Escherichia coli, range among E. coli. The protocol:
(§2) Minimum inhibitory concentrations (MIC) were determined by reference Clinical and Laboratory Standards Institute (CLSI) broth microdilution methods per M7-A7 [2006]. Quality control ranges utilizing E. coli ATCC 25922, P. aeruginosa ATCC 27853 and S. aureus ATCC 29213, and interpretive criteria for comparator agents were as published in CLSI M100-S17 [2007]. Briefly, serial two-fold dilutions of the test compounds were prepared at 2× concentration in Mueller Hinton Broth. The compound dilutions were mixed in 96-well assay plates in a 1:1 ratio with bacterial inoculum. The inoculum was prepared by suspension of a colony from an agar plate that was prepared the previous day. Bacteria were suspended in sterile saline and added to each assay plate to obtain a final concentration of 5×10^5 CFU/mL. The plates were incubated at 35° C. for 20 hours in ambient air.
(§3) In order to determine the activity of representative antibacterial aminoglycoside compounds against bacterial species that commonly cause complicated urinary tract infections worldwide, isolates were collected from 47 medical centers in the U.S. and Europe (10 countries) from urine or blood culture with the source of bacteremia documented as a urinary tract infection. Strains were susceptibility tested against Example 1, gentamicin, amikacin and 10 comparators by CLSI broth microdilution. These MIC assays were conducted following the same protocol as set forth in Example 110. Pathogens (169 in total) included E. coli, Klebsiella spp., Enterobacter spp., Citrobacter spp., P. mirabilis, M. Morganii, P. aeruginosa, S. aureus and S. saprophyticus.

Experiment [4] concerns P. mirabilis and M. morganii. Kind of experiment: MIC, urinary tract infection isolates. Format: cell-based. As to the method:
as §2, §3

Experiment [5] deals with P. aeruginosa (19). The experiment is described as follows: MIC, urinary tract infection isolates. In kind it is cell-based. Particulars: Pseudomonas aeruginosa; P. aeruginosa isolates. As to the method:
as §2, §3

Experiment [6] has as its system S. aureus (23). Kind of experiment: MIC, urinary tract infection isolates. Particulars: Staphylococcus aureus; S. aureus isolates, including 43.5% oxacillin-resistant strains. Format: cell-based. As to the method:
as §2, §3

For experiment [7], the system named is S. saprophyticus (19). The experiment is described as follows: MIC, urinary tract infection isolates. Particulars: Staphylococcus saprophyticus; S. saprophyticus isolates. In kind it is cell-based. The protocol: as §2, §3
Experiment [8] deals with K. pneumoniae AKPN 1073, MDR. The experiment is described as follows: Murine neutropenic thigh model. In kind it is in vivo. The protocol: FIG. 2 is a line graph showing dose-responses of Example 1, gentamicin, and imipenem (positive control) in a murine neutropenic thigh model against an AG-resistant clinical isolate of K. pneumoniae (AKPN 1073). Activity is presented as the log10 difference in CFU/thigh after 24 hours of antibiotic treatment compared to CFU/thigh just prior to antibiotic treatment (2 hours post-infection). Total dose per 24 hours is shown; dosing was q12 hours. 6 mice per group. Inoculum=1.3×10^4 CFU.
The in vivo activity of Example 1 in the mouse neutropenic thigh model (Andes and Craig. Antimicrob Agents Chemother. 2002, 46:1665-1670) was determined against seven bacterial strains including susceptible Escherichia coli and Klebsiella pneumoniae; multi-drug resistant (MDR) clinical isolates of E. coli and K. pneumoniae that display resistance to multiple antibiotics (including AGs); MRSA; and two K. pneumoniae carbapenemases (KPC)-expressing strains (see Table 5). For this efficacy model, groups of six CD-1 mice were rendered neutropenic by two intraperitoneal injections of cyclophosphamide. The first injection was 150 mg/kg three days prior to infection (day −4), and the second injection was 100 mg/kg one day prior to infection (day −1). On study day 0, animals were inoculated intramuscularly (0.1 ml) with a known number of colony forming units (CFU) of the specified bacterial strain (ATCC 25922, AECO 1003, ATCC 43816, AKPN 1073, AKPN 1109, ATCC 33591 or ASMA 1030), tailored to the virulence of each strain in the model to maximize bacterial load while avoiding mortality in the untreated control arms. Antibiotics were administered via subcutaneous injection at 2 and 14 hours after bacterial challenge. At 26 hours, infected thigh tissue was harvested, homogenized, and plated to count CFU. Untreated control animals were harvested at 2 hours post-infection to assess the initial bacterial load and at 26 hours post-infection to measure growth in the absence of antibiotic treatment.

The test system of experiment [9] is K. pneumoniae AKPN 1109, KPC. Kind of experiment: MIC of thigh model strain. Format: cell-based. The note with it: Klebsiella pneumoniae; Table 5; K. pneumoniae KPC AKPN 1109. As to the method: as §2
Experiment [10] relates to S. marcescens ASMA 1030, KPC. The experiment is described as follows: MIC of thigh model strain. Format: cell-based. The note with it: Serratia marcescens; Table 5; S. marcescens KPC ASMA 1030. As to the method: as §2

Converted amounts (≈) assume the structure as drawn. Like-named read-outs stand apart in the source and are kept apart here.

A word on the MIC: it is the least concentration at which growth counts as inhibited. The term MIC90 denotes an inhibitory concentration at the 90% level, which refers to growth in some studies and to a panel of isolates in others. A lower MIC90 goes with greater potency. Usually MIC50 stands for the lowest concentration that inhibits either 50% of growth or 50% of the strains tested, depending on the study. In general, ED50 refers to the midpoint of the dose-response relation. Consider `CN[C@@H]1[C@@H](O)[C@@H](O[C@@H]2[C@@H](O)[C@H](O[C@H]3OC(CNCCO)=CC[C@H]3N)[C@@H](N)C[C@H]2NC(=O)[C@@H](O)CCN)OC[C@]1(C)O` [Example 1, 6′-(2-Hydroxy-ethyl)-1-(4-amino-2(S)-hydroxy-butyryl)-sisomicin], for which the MIC was less than 1 µg/mL in experiment [1] (ATCC25922, Table 2, read-out: MIC E. coli); 1 µg/mL (≈ 1.69 µM) in experiment [1] (ATCC25922, Table 5, E. coli Susceptible ATCC 25922, read-out: MIC); less than 1 µg/mL in experiment [1] (Table 1, AECO001 is ATCC25922, read-out: MIC AECO001); 1 to 16 µg/mL (≈ 1.69 to 27 µM) in experiment [2]; 0.25 to 0.5 µg/mL in experiment [9]; 1 µg/mL in experiment [10]. Moreover, the MIC AECO001 in experiment [1] (Table 3, ATCC25922) was determined as 0.5 µg/mL (≈ 0.844 µM). Also, the MIC90 in [3] was 0.5 to 2 µg/mL (≈ 0.844 to 3.37 µM); in experiment [4], 4 to 8 µg/mL (≈ 6.75 to 13.5 µM); in [5], 16 µg/mL (≈ 27 µM); in experiment [6] it was 2 µg/mL (≈ 3.37 µM); in experiment [7], 0.5 µg/mL (≈ 0.844 µM). In experiment [7], this molecule displayed an MIC50 of no more than 0.25 µg/mL. In experiment [8] (K. pneumoniae AKPN 1073), this molecule showed an ED50/MIC of 6.6. Also, the 50% effective dose (ED50) in [8] (Klebsiella pneumoniae, sc, neutropenic CD-1 mice, subcutaneous at 2 and 14 hours, K. pneumoniae AKPN 1073) stood at 3.3 mg/kg. Also, in experiment [8] (two highest dosages, challenge 1.3×10^4 CFU AKPN 1073, FIG. 2), the “bacterial load after 24 hours of treatment versus initial bacterial load at 2 hours post-inoculation” value was “reduced to below the level of the initial bacterial load”.
